Results published in PMC8330742, “New benzothieno[2,3-c]pyridines as non-steroidal CYP17 inhibitors: design, synthesis, anticancer screening, apoptosis induction, and in silico ADME profile studies” (Journal of Enzyme Inhibition and Medicinal Chemistry, 2021).

Assays:
OVCAR-4 = experiment: NCI-60 SRB screen; format: cell-based, human; settings: Homo sapiens; OVCAR-4; single dose 10^−5 M; read-out: Growth inhibition (%)
OVCAR-3 = experiment: NCI-60 SRB screen; format: cell-based, human; settings: Homo sapiens; OVCAR-3; single dose 10^−5 M; read-out: Growth inhibition (%)
SK-OV-3 = experiment: NCI-60 SRB screen; format: cell-based, human; settings: Homo sapiens; SK-OV-3; single dose 10^−5 M; read-out: Growth inhibition (%)
NCI-H322M = experiment: NCI-60 SRB screen; format: cell-based, human; settings: Homo sapiens, single dose 10^−5 M, read-out: Growth inhibition (%)
UACC-62 = experiment: NCI-60 SRB screen; format: cell-based, human; settings: Homo sapiens; UACC-62; single dose 10^−5 M; read-out: Growth inhibition (%)
IGROV1 = experiment: NCI-60 SRB screen; format: cell-based, human; settings: Homo sapiens, IGROV-1; IGROV1; single dose 10^−5 M; read-out: Growth inhibition (%)
OVCAR-8 = experiment: NCI-60 SRB screen; format: cell-based, human; settings: Homo sapiens; OVCAR-8; single dose 10^−5 M; read-out: Growth inhibition (%)
[1] = system: panel of 60 cancer cell lines; experiment: NCI-60 SRB screen, mean or range over the panel; format: cell-based, human; settings: Homo sapiens; mean over the cell lines; single dose 10^−5 M; read-out: Mean growth inhibition (%)
NCI-H226 = experiment: NCI-60 SRB screen; format: cell-based, human; settings: Homo sapiens; NCI-H226; single dose 10^−5 M; read-out: Growth inhibition (%)
CCRF-CEM = experiment: NCI-60 SRB screen; format: cell-based; settings: Homo sapiens, single dose 10^−5 M, read-out: Growth inhibition (%)
NCI-H460 = experiment: NCI-60 SRB screen; format: cell-based, human; settings: Homo sapiens; NCI-H460; single dose 10^−5 M; read-out: Growth inhibition (%)
SK-MEL-28 = experiment: NCI-60 SRB screen; format: cell-based; settings: Homo sapiens; SK-MEL-28; single dose 10^−5 M; read-out: Growth inhibition (%)
M14 = experiment: NCI-60 SRB screen; format: cell-based, human; settings: Homo sapiens; M14; single dose 10^−5 M; read-out: Growth inhibition (%)
SN12C = experiment: NCI-60 SRB screen; format: cell-based, human; settings: Homo sapiens, SN12C; SN 12 C; single dose 10^−5 M; read-out: Growth inhibition (%)
TK-10 = experiment: NCI-60 SRB screen; format: cell-based, human; settings: Homo sapiens; TK-10; single dose 10^−5 M; read-out: Growth inhibition (%)
HT-29 = experiment: NCI-60 SRB screen; format: cell-based; settings: Homo sapiens; HT-29; single dose 10^−5 M; read-out: Growth inhibition (%)
HL-60(TB) = experiment: NCI-60 SRB screen; format: cell-based, human; settings: Homo sapiens; HL-60 (TB); single dose 10^−5 M; read-out: Growth inhibition (%)
LOX IMVI = experiment: NCI-60 SRB screen; format: cell-based, human; settings: Homo sapiens, single dose 10^−5 M, read-out: Growth inhibition (%)
UACC-257 = experiment: NCI-60 SRB screen; format: cell-based, human; settings: Homo sapiens, UACC-257; UACC-275 (so in the source); single dose 10^−5 M; read-out: Growth inhibition (%)
HCC-2998 = experiment: NCI-60 SRB screen; format: cell-based, human; settings: Homo sapiens; HCC-2998; single dose 10^−5 M; read-out: Growth inhibition (%)
EKVX = experiment: NCI-60 SRB screen; format: cell-based, human; settings: Homo sapiens, single dose 10^−5 M, read-out: Growth inhibition (%)
NCI-H23 = experiment: NCI-60 SRB screen; format: cell-based, human; settings: Homo sapiens; NCI-H23; single dose 10^−5 M; read-out: Growth inhibition (%)
COLO 205 = experiment: NCI-60 SRB screen; format: cell-based, human; settings: Homo sapiens; COLO 205; single dose 10^−5 M; read-out: Growth inhibition (%)
SF-268 = experiment: NCI-60 SRB screen; format: cell-based, human; settings: Homo sapiens; SF-268; single dose 10^−5 M; read-out: Growth inhibition (%)
NCI-H522 = experiment: NCI-60 SRB screen; format: cell-based, human; settings: Homo sapiens; NCI-H522; single dose 10^−5 M; read-out: Growth inhibition (%)
SW-620 = experiment: NCI-60 SRB screen; format: cell-based; settings: Homo sapiens; SW-620; single dose 10^−5 M; read-out: Growth inhibition (%)
UO-31 = experiment: NCI-60 SRB screen; format: cell-based, human; settings: Homo sapiens; UO-31; single dose 10^−5 M; read-out: Growth inhibition (%)
SF-295 = experiment: NCI-60 SRB screen; format: cell-based, human; settings: Homo sapiens; SF-295; single dose 10^−5 M; read-out: Growth inhibition (%)
SK-MEL-2 = experiment: NCI-60 SRB screen; format: cell-based, human; settings: Homo sapiens; SK-MEL-2; single dose 10^−5 M; read-out: Growth inhibition (%)
MDA-MB-435 = experiment: NCI-60 SRB screen; format: cell-based; settings: Homo sapiens, MDA-MB-435, read-out: Growth inhibition (%)
HCT-15 = experiment: NCI-60 SRB screen; format: cell-based, human; settings: Homo sapiens; HCT-15; single dose 10^−5 M; read-out: Growth inhibition (%)
RXF 393 = experiment: NCI-60 SRB screen; format: cell-based, human; settings: Homo sapiens; RXF 393; single dose 10^−5 M; read-out: Growth inhibition (%)
HCT-116 = experiment: NCI-60 SRB screen; format: cell-based, human; settings: Homo sapiens; HCT-116; single dose 10^−5 M; read-out: Growth inhibition (%)
A549/ATCC = experiment: NCI-60 SRB screen; format: cell-based, human; settings: Homo sapiens, single dose 10^−5 M, read-out: Growth inhibition (%)
ACHN = experiment: NCI-60 SRB screen; format: cell-based; settings: Homo sapiens, single dose 10^−5 M, read-out: Growth inhibition (%)
MALME-3M = experiment: NCI-60 SRB screen; format: cell-based, human; settings: Homo sapiens, single dose 10^−5 M, read-out: Growth inhibition (%)
HOP-62 = experiment: NCI-60 SRB screen; format: cell-based, human; settings: Homo sapiens; HOP-62; single dose 10^−5 M; read-out: Growth inhibition (%)
SR = experiment: NCI-60 SRB screen; format: cell-based; settings: Homo sapiens, single dose 10^−5 M, read-out: Growth inhibition (%)
MOLT-4 = experiment: NCI-60 SRB screen; format: cell-based; settings: Homo sapiens; MOLT-4; single dose 10^−5 M; read-out: Growth inhibition (%)
KM12 = experiment: NCI-60 SRB screen; format: cell-based, human; settings: Homo sapiens; KM12; single dose 10^−5 M; read-out: Growth inhibition (%)
K-562 = experiment: NCI-60 SRB screen; format: cell-based, human; settings: Homo sapiens, K562; K-562; single dose 10^−5 M; read-out: Growth inhibition (%)
786-0 = experiment: NCI-60 SRB screen; format: cell-based; settings: Homo sapiens; 786-0; single dose 10^−5 M; read-out: Growth inhibition (%)
NCI/ADR-RES = experiment: NCI-60 SRB screen; format: cell-based, human; settings: Homo sapiens, single dose 10^−5 M, read-out: Growth inhibition (%)
SK-MEL-5 = experiment: NCI-60 SRB screen; format: cell-based, human; settings: Homo sapiens; SK-MEL-5; single dose 10^−5 M; read-out: Growth inhibition (%)

Compound `O=C1NC(c2ccccc2[N+](=O)[O-])c2sc3c(F)cccc3c2C1Cl` (stereo not shown) [Compound 4c, 4-Chloro-8-fluoro-1-(2-nitrophenyl)-1,2-dihydro[1]benzothieno[2,3-c] pyridine-3(4H)-one] has an inhibition at 10 µM (OVCAR-4) of 11.1%, an inhibition at 10 µM (OVCAR-3) of 7.25% and an inhibition at 10 µM (SK-OV-3) of -9.85%. It also gave an inhibition at 10 µM (NCI-H322M) of -4.23%, an inhibition at 10 µM (UACC-62) of 20.8% and an inhibition at 10 µM (IGROV1) of 33%. The inhibition at 10 µM (OVCAR-8) was 1.73%, the inhibition at 10 µM [1] was 3% and the inhibition at 10 µM (NCI-H226) was 18.5%. For the same compound, the inhibition at 10 µM (CCRF-CEM) was -0.04%, the inhibition at 10 µM (NCI-H460) was 17.2% and the inhibition at 10 µM (SK-MEL-28) was 8.45%. For the same compound, the inhibition at 10 µM (M14) was 1.7%, the inhibition at 10 µM (SN12C) was 4.76% and the inhibition at 10 µM (TK-10) was -52%. The inhibition at 10 µM (HT-29) was -9.93%, the inhibition at 10 µM (HL-60(TB)) was -5.53% and the inhibition at 10 µM (LOX IMVI) was 8.72%. The inhibition at 10 µM (UACC-257) was -0.18%, the inhibition at 10 µM (HCC-2998) was -27.4% and the inhibition at 10 µM (EKVX) was 11.8%. It also gave an inhibition at 10 µM (NCI-H23) of 6.95%, an inhibition at 10 µM (COLO 205) of -21.6% and an inhibition at 10 µM (SF-268) of 10.5%. For the same compound, the inhibition at 10 µM (NCI-H522) was 7.95%, the inhibition at 10 µM (SW-620) was 2.43% and the inhibition at 10 µM (UO-31) was 33.2%. For the same compound, the inhibition at 10 µM (SF-295) was -7.26%, the inhibition at 10 µM (SK-MEL-2) was -16.7% and the inhibition at 10 µM (MDA-MB-435) was -7.17%. For the same compound, the inhibition at 10 µM (HCT-15) was -1.51%, the inhibition at 10 µM (RXF 393) was -17.3% and the inhibition at 10 µM (HCT-116) was 11.4%. The inhibition at 10 µM (A549/ATCC) was 3.15%, the inhibition at 10 µM (ACHN) was -4.45% and the inhibition at 10 µM (MALME-3M) was 9.46%. It also gave an inhibition at 10 µM (HOP-62) of 3.32%, an inhibition at 10 µM (SR) of 0.2% and an inhibition at 10 µM (MOLT-4) of 11.8%. The inhibition at 10 µM (KM12) was -0.66%, the inhibition at 10 µM (K-562) was 33.5% and the inhibition at 10 µM (786-0) was -16.9%. It also gave an inhibition at 10 µM (NCI/ADR-RES) of -1.98% and an inhibition at 10 µM (SK-MEL-5) of 8.45%.

`O=C1NC(c2cccc([N+](=O)[O-])c2)c2sc3c(F)cccc3c2C1Cl` (stereo not shown) [Compound 4d, 4-Chloro-8-fluoro-1-(3-nitrophenyl)-1,2-dihydro[1]benzothieno[2,3-c] pyridine-3(4H)-one] showed an inhibition at 10 µM (OVCAR-4) of 1.96%, an inhibition at 10 µM (OVCAR-3) of -4.91% and an inhibition at 10 µM (SK-OV-3) of -10.2%. The inhibition at 10 µM (NCI-H322M) was -0.93%, the inhibition at 10 µM (UACC-62) was 10.4% and the inhibition at 10 µM (IGROV1) was 22.8%. It also gave an inhibition at 10 µM (OVCAR-8) of -1.82%, an inhibition at 10 µM [1] of 0.15% and an inhibition at 10 µM (NCI-H226) of 5.26%. It also gave an inhibition at 10 µM (CCRF-CEM) of 1.99%, an inhibition at 10 µM (NCI-H460) of 1.43% and an inhibition at 10 µM (SK-MEL-28) of -10.5%. The inhibition at 10 µM (M14) was -0.99%, the inhibition at 10 µM (SN12C) was 2.95% and the inhibition at 10 µM (TK-10) was -40.7%. The inhibition at 10 µM (HT-29) was 2.3%, the inhibition at 10 µM (HL-60(TB)) was -16.8% and the inhibition at 10 µM (LOX IMVI) was 5.22%. It also gave an inhibition at 10 µM (UACC-257) of -15.8%, an inhibition at 10 µM (HCC-2998) of -15.9% and an inhibition at 10 µM (EKVX) of 0.87%. For the same compound, the inhibition at 10 µM (NCI-H23) was -1.19%, the inhibition at 10 µM (COLO 205) was -17.2% and the inhibition at 10 µM (SF-268) was 6.94%. The inhibition at 10 µM (NCI-H522) was 8.55%, the inhibition at 10 µM (SW-620) was 3.43% and the inhibition at 10 µM (UO-31) was 34.7%. The inhibition at 10 µM (SF-295) was -3.1%, the inhibition at 10 µM (SK-MEL-2) was -26.1% and the inhibition at 10 µM (MDA-MB-435) was -7.63%. It also gave an inhibition at 10 µM (HCT-15) of 1.31%, an inhibition at 10 µM (RXF 393) of -18.1% and an inhibition at 10 µM (HCT-116) of 9.54%. For the same compound, the inhibition at 10 µM (A549/ATCC) was -2.89%, the inhibition at 10 µM (ACHN) was 6.28% and the inhibition at 10 µM (MALME-3M) was 4.62%. It also gave an inhibition at 10 µM (HOP-62) of 1.22%, an inhibition at 10 µM (SR) of 11.4% and an inhibition at 10 µM (MOLT-4) of 9.18%. For the same compound, the inhibition at 10 µM (KM12) was -5.21%, the inhibition at 10 µM (K-562) was 23% and the inhibition at 10 µM (786-0) was -11.2%. It also gave an inhibition at 10 µM (NCI/ADR-RES) of -8.05% and an inhibition at 10 µM (SK-MEL-5) of 4.05%.
